Data from patent US12714715B2, “Agent for treating myopia, preventing myopia and/or suppressing myopia progression” (SANTEN PHARMACEUTICAL CO., LTD., priority 2020, dated 2026).

Key:
guinea pigs = test: Evaluation of mydriatic action (pupil diameter, pupillary light reflex) after repeated topical administration to one eye; assay type: in vivo, guinea pig; conditions: for Pupil diameter before administration / Decreased pupillary light reflex / Maximum pupil diameter / Measurement time of maximum pupil diameter: 10 μL topical to left eye once daily 5 days; for Pupil diameter before administration: before administration on day 5, average of 3 guinea pigs; for Decreased pupillary light reflex / Measurement time of maximum pupil diameter: day 5; for Maximum pupil diameter: longest average diameter among measurement times on day 5
Procedure: An atropine solution was repeatedly topically administered to one eye of a guinea pig to evaluate the effect of the solution on mydriasis.
Atropine sulfate hydrate and glycerin were dissolved in water for injection to prepare 0.001%, 0.0003% and 0.0001% atropine solutions without adjusting the pH.
Each of the prepared solutions was topically administered to the left eye of guinea pigs (the left eyes of 3 guinea pigs for each solution) in a volume of 10 μL once daily for 5 days. The pupil diameter of each guinea pig was measured before the administration on day 5 as well as 1, 2 and 4 hours after the administration to observe the pupillary light reflex. The measured pupil diameters of each guinea pig at each measurement time were averaged to obtain the average value. The obtained average value was defined as the average pupil diameter. Among each average pupil diameter at each measurement time, the longest diameter was defined as the maximum pupil diameter.

guinea pig myopia model = test: Test on suppression of myopia progression (axial length elongation and refractive error) in guinea pig myopia model; assay type: in vivo, guinea pig (Slc:Hartley); conditions: for Difference of axial lengths / Difference of refraction: 10 μL topical to goggled right eye once daily 14 days, right eye − left eye, average n=6; for Difference of axial lengths / Difference of refraction / Suppression rate of axial length elongation / Suppression rate of refraction / Suppression rate of refractive error: day 14; for Suppression rate of axial length elongation / Suppression rate of refraction / Suppression rate of refractive error: vs vehicle control group
Procedure: According to the following procedures, the effect of AFDX0250 on the suppression of myopia progression (the axial length elongation and the refractive error) was evaluated.
AFDX0250 was dissolved in purified water with a buffering agent and a tonicity agent to prepare 0.5% AFDX0250 solution. 1 mol/L sodium hydroxide reagent solution or dilute hydrochloric acid was added to the solution to adjust the pH thereof to neutral. Also, a buffering agent and a tonicity agent were dissolved in purified water to prepare a neutral vehicle. 9.8 mL of the vehicle was mixed with 0.2 mL of 0.5% AFDX0250 solution and stirred to prepare 0.01% AFDX0250 solution. 3 mL, 4 mL and 4.5 mL of the vehicles were mixed with 2 mL, 1 mL and 0.5 mL of 0.01% AFDX0250 solutions, respectively, and stirred to prepare 0.004%, 0.002% and 0.001% AFDX0250 solutions.
A test tube with a diameter of 18 mm was cut off at the level of 10 mm from the bottom, and the cut-off bottom part was glued to one side of Velcro tape (about 20 mm square) with a hole of an appropriate diameter in the center with an adhesive agent to prepare a lens (goggle). 3-week-old guinea pigs (Slc:Hartley) (n=30) were obtained, and the prepared goggle was covered to the right eye of each guinea pig with an adhesive agent to induce myopia to the guinea pigs. The left eye thereof without goggle was used as control.
The […] group, 0.004% AFDX0250 solution administration group, […] group (control group) (n=6 per group). In the AFDX0250 solution administration groups, 10 μL of the AFDX0250 solution in each concentration was topically administered to the right eye of each guinea pig once daily for 14 days from the day when the right eye was covered with the goggle (day 0) to day 13. In the control group, 10 μL of the vehicle was topically administered to the right eye of each guinea pig once daily for 14 days from the day when the right eye was covered with the goggle (day 0) to day 13. In the all groups, 10 μL of the vehicle was topically administered to the left eye at the same frequency of administration as that of each group daily for 14 days from day 0 to day 13. The guinea pigs were reared under a normal rearing condition.
On day 14 from the myopia induction, the axial lengths of right and left eyeballs were measured with an ultrasound axial length measurement device ECHOSCAN US-500 (A-scan) (NIDEK CO., LTD.), and the refractions were measured with the auto refractometer AR-1a (NIDEK CO., LTD.). The difference of axial lengths and the suppression rate of the axial length elongation as well as the difference of refraction and the suppression rate of the refractive error were calculated according to the following formulae. The calculation was performed in Microsoft Excel. Difference of axial lengths (mm)=Axial length of right eye (mm)−Axial length of left eye (mm) Suppression rate of axial length elongation (%)=(1−Difference of axial lengths in AFDX0250 solution administration group/Difference of axial lengths in control group)×100 (Formula) Difference of refraction (D)=Refraction of right eye (D)−Refraction of left eye (D) Suppression rate of refractive error (%)=(1−Difference of refraction in AFDX0250 solution administration group/Difference of refraction in control group)×100 (Formula) (Test Result)
AFDX0250 was dissolved in purified water with a buffering agent and a tonicity agent to prepare 0.5% AFDX0250 solution. 1 mol/L sodium hydroxide reagent solution or dilute hydrochloric acid was added to the solution to adjust the pH thereof to neutral. Also, a buffering agent and a tonicity agent were dissolved in purified water to prepare a neutral vehicle. 4 mL and 4.8 mL of vehicles were mixed with 1 mL and 0.2 mL of 0.5% AFDX0250 solutions, respectively, and stirred to prepare 0.1% and 0.02% of AFDX0250 solutions. Also, 4 mL of the vehicle was mixed with 1 mL of 0.02% AFDX0250 solution and stirred to prepare 0.004% AFDX0250 solution. […]

[1] = Example 1, 0.001% solution, topical once daily 14 days
[2] = Example 1, 0.002% solution, topical once daily 14 days
[3] = Example 1, 0.004% solution, topical once daily 14 days
[4] = Example 1, 0.01% solution, topical once daily 14 days
[5] = Example 2, 0.004% solution, topical once daily 14 days
[6] = Example 2, 0.02% solution, topical once daily 14 days
[7] = Example 2, 0.1% solution, topical once daily 14 days
[8] = Example 2, 0.5% solution, topical once daily 14 days
[9] = Comparative Example 3, 0.0001% solution
[10] = Comparative Example 3, 0.0003% solution
[11] = Comparative Example 3, 0.001% solution

For `CCN(CC)CC1CCCCN1CC(=O)N1c2ccccc2C(=O)Nc2cccnc21` (single isomer, unassigned; (+)) [AFDX0250, (+)-11-[2-[2-[(diethylamino)methyl]-1-piperidinyl]acetyl]-5,11-dihydro-6H-pyrido[2,3-b][1,4]benzodiazepin-6-one], which “Mydriatic action (pupil diameter and pupillary light reflex, in words)” value (guinea pigs; guinea pig, in vivo) is on record?
The value was “increased the pupil diameter and decreased the pupillary light reflex”.

And the “Difference of axial lengths” value (guinea pig myopia model; Example 1, 0.001% solution)?
The value was 0.17 mm.

And the Difference of refraction (guinea pig myopia model; Example 1, 0.001% solution)?
The Difference of refraction was −6.12 D.

What about the “Suppression rate of axial length elongation” value (guinea pig myopia model; [1]) of the same compound?
The value was 15.85%.

What about the “Suppression rate of refraction” value (guinea pig myopia model; [1]) of the same compound?
The value was 22.78%.

What about the “Difference of axial lengths” value (guinea pig myopia model; Example 1, 0.002% solution) of the same compound?
Its value is 0.09 mm.

And the Difference of refraction (guinea pig myopia model; Example 1, 0.002% solution)?
The Difference of refraction was −2.78 D.

What about the “Suppression rate of axial length elongation” value (guinea pig myopia model; [2]) of the same compound?
The value was 55.46%.

And the “Suppression rate of refraction” value (guinea pig myopia model; [2])?
Its value is 64.95%.

And the “Difference of axial lengths” value (guinea pig myopia model; Example 1, 0.004% solution)?
Its value is 0.07 mm.

What about the Difference of refraction (guinea pig myopia model; Example 1, 0.004% solution) of the same compound?
Its Difference of refraction is −2.39 D.

And the “Suppression rate of axial length elongation” value (guinea pig myopia model; [3])?
The value was 63.39%.

What about the “Suppression rate of refraction” value (guinea pig myopia model; [3]) of the same compound?
Its value is 69.80%.

And the “Difference of axial lengths” value (guinea pig myopia model; Example 1, 0.01% solution)?
Its value is 0.06 mm.

And the Difference of refraction (guinea pig myopia model; Example 1, 0.01% solution)?
Its Difference of refraction is −3.63 D.

And the “Suppression rate of axial length elongation” value (guinea pig myopia model; [4])?
Its value is 68.58%.

And the “Suppression rate of refraction” value (guinea pig myopia model; [4])?
The value was 54.19%.

And the “Difference of axial lengths” value (guinea pig myopia model; Example 2, 0.004% solution)?
Its value is 0.07 mm.

And the Difference of refraction (guinea pig myopia model; Example 2, 0.004% solution)?
Its Difference of refraction is −3.25 D.

What about the “Suppression rate of axial length elongation” value (guinea pig myopia model; [5]) of the same compound?
Its value is 66.85%.

And the “Suppression rate of refractive error” value (guinea pig myopia model; [5])?
The value was 59.27%.

And the “Difference of axial lengths” value (guinea pig myopia model; Example 2, 0.02% solution)?
The value was 0.05 mm.

And the Difference of refraction (guinea pig myopia model; Example 2, 0.02% solution)?
Its Difference of refraction is −2.52 D.

And the “Suppression rate of axial length elongation” value (guinea pig myopia model; [6])?
The value was 74.16%.

And the “Suppression rate of refractive error” value (guinea pig myopia model; [6])?
Its value is 68.43%.

What about the “Difference of axial lengths” value (guinea pig myopia model; Example 2, 0.1% solution) of the same compound?
The value was 0.04 mm.

What about the Difference of refraction (guinea pig myopia model; Example 2, 0.1% solution) of the same compound?
Its Difference of refraction is −2.05 D.

And the “Suppression rate of axial length elongation” value (guinea pig myopia model; [7])?
The value was 79.21%.

What about the “Suppression rate of refractive error” value (guinea pig myopia model; [7]) of the same compound?
Its value is 74.35%.

And the “Difference of axial lengths” value (guinea pig myopia model; Example 2, 0.5% solution)?
The value was 0.02 mm.

And the Difference of refraction (guinea pig myopia model; Example 2, 0.5% solution)?
The Difference of refraction was −2.03 D.

What about the “Suppression rate of axial length elongation” value (guinea pig myopia model; [8]) of the same compound?
Its value is 88.48%.

What about the “Suppression rate of refractive error” value (guinea pig myopia model; [8]) of the same compound?
Its value is 74.64%.

What about the “Effect on the axial length elongation and the refractive error (summary in words)” value (guinea pig myopia model; summary of Examples 1 and 2 (AFDX0250) and Comparative Examples 1 and 2 (AFDX0116), topical once daily 14 days) of the same compound?
Its value is “strongly suppressed the axial length elongation and the refractive error”.

For `CN1[C@@H]2CC[C@H]1CC(OC(=O)C(CO)c1ccccc1)C2.CN1[C@@H]2CC[C@H]1CC(OC(=O)C(CO)c1ccccc1)C2.O.O=S(=O)(O)O` (stereo partly shown) [atropine, Atropine sulfate hydrate], which “Pupil diameter before administration” value (guinea pigs; [9]) is on record?
Its value is 2.3 mm.

And the “Decreased pupillary light reflex” value (guinea pigs; [9])?
The value was 0/3.

What about the Maximum pupil diameter (guinea pigs; [9]) of the same compound?
The Maximum pupil diameter was 2.8 mm.

And the “Pupil diameter before administration” value (guinea pigs; [10])?
The value was 3.0 mm.

What about the “Decreased pupillary light reflex” value (guinea pigs; [10]) of the same compound?
Its value is 1/3.

What about the “Measurement time of maximum pupil diameter” value (guinea pigs; [10]) of the same compound?
The value was 1 h.

What about the Maximum pupil diameter (guinea pigs; [10]) of the same compound?
Its Maximum pupil diameter is 3.8 mm.

What about the “Mydriatic action (pupil diameter and pupillary light reflex, in words)” value (guinea pigs; Comparative Example 3, 0.001% and 0.0003% atropine solution administration groups) of the same compound?
Its value is “the increased pupil diameter and the decreased pupillary light reflex were found”.

What about the “Pupil diameter before administration” value (guinea pigs; [11]) of the same compound?
The value was 2.6 mm.

And the “Decreased pupillary light reflex” value (guinea pigs; [11])?
The value was 3/3.

What about the “Measurement time of maximum pupil diameter” value (guinea pigs; [11]) of the same compound?
The value was 1 h.

What about the Maximum pupil diameter (guinea pigs; [11]) of the same compound?
The Maximum pupil diameter was 4.9 mm.
